Results reported in patent publication EP2674155B1, “Association of resveratrol and carboxymethylglucan” (priority 2012, dated 2013).

What was measured:
[1] = Stability over time of resveratrol in aqueous solution (25°C, closed, protected from light), HPLC; assay type: physicochemical; conditions: resveratrol alone 0.03 mg/ml
Experimental: (§1) The chromatographic method devised for determining resveratrol provides the use of a HPLC Waters system constituted by a pump, 600 model, by a Waters self-sampler mod. 717 and by a UV-Visible Photodiode array detector mod 2996. The system is handled by the Millenium^32 software. The used chromatographic column is a Symmetry C-18 with length of 15 cm, associated to a specific pre-column of same material with length of 1 cm. The elution is performed under isocratic conditions by using the following mixtures: • 1) 30% [Acetic acid 0.1 % in methanol] e 70% [Acetic acid 0.1 % in water] • 2) 80% [Acetic acid 10% in water] and 20% [Acetonitrile]. For the measurements 50 µL of sample are taken, diluted in 500µL of mobile phase and an aliquot of 50µL is injected in HPLC.
The examined concentration of the solution of resveratrol was 0.03 mg/ml, corresponding to the maximum quantity which can be solubilized in water of the original product. […] The two solutions were kept under the same conditions described above for the solution of resveratrol only and they were evaluated in different moments as from the time of the preparation thereof. […]

[2] = Solubility of resveratrol in buffered aqueous solution in presence of CMG, determined by HPLC; assay type: physicochemical
Experimental: as §1
The solutions of CMG and resveratrol have always been prepared in a buffered, isotonic, physiological pH-containing aqueous solution, constituted by: • dipotassium phosphate 0.74% • sodium chloride 0.42% • potassium phosphate 0.175%
All solutions were cold-prepared and without using any organic solvent.
In order to evaluate the solubility, with consequent effect on the bioavailability thereof, formulations were prepared containing resveratrol in association with CMG at increasing concentrations (from 0.5 mg/ml to 10 mg/ml) in a ratio 1:1, in an aqueous solution of the above-mentioned composition. […]

VERO cellular line = assay: Cellular metabolic activity, MTT assay; assay type: cell-based; conditions: VERO cells, resveratrol 0.5 mg/ml (2.2 mM), 6 hours after exposition, versus not treated cells (CTRL)
Experimental: The cellular metabolic activity is evaluated on VERO cellular line, by means of MTT cellular proliferation assay (3-(4,5-dimethylthiazole-2-il)-2,5-diphenyltetrazolium bromide). The test with MTT is a simple method for determining the metabolic activation of the cells and it is based upon the action of the mitochondrial enzyme succinate dehydrogenase reducing the tetrazolium salts in crystals of a bluish product called formazan. Therefore the reaction can take place only in the metabolically active cells and the value of optical density (O.D.), obtained by means of spectrophotometric reading, can be correlated to the quantity of existing vital cells.
Upon considering the application of the association CMG-resveratrol for the formulation of pharmaceutical products, dietary supplies, medical devices, cosmetic products, functional pieces of food, veterinary products, with consequent interaction with the biological systems of men and animals in general, even the possible cytotoxycity was evaluated. In particular tests of cellular metabolic activity in presence of resveratrol and CMG on VERO cellular line were performed. […]
6 hours after exposition to these substances MTT colouring agent was added, then the formazan produced by the metabolically active cells was extracted with isopropanol and the optical density measured at 570 nm by subtracting the reference value at 690 nm. […]

[3] = assay type: physicochemical
Experimental: The solubility of triacetyl-resveratrol and of trimethylether of resveratrol in an aqueous solution (of the same composition described in example 1) in presence of CMG was evaluated. In particular, the solubility in aqueous phase of triacetyl-resveratrol and of trimethyl ether of resveratrol was evaluated at first and this value was considered unitary.

Row | stability of resveratrol in buffer solution ([1]; after 2 months) | stability of resveratrol in buffer solution ([1]; after 7 months) | concentration of CMG from which highly solubilizing action on resveratrol is confirmed [2] [µg/mL] | solubilization higher than what reported in literature [2] | reduction in the cellular metabolic activity (VERO cellular line) [%] | SMILES | increase of solubility in presence of CMG, relative to solubility of the pure compound considered unitary [3]
1 | strong degradation | no more detected | ≥ 250 | at least 100 times | 20 | Oc1ccc(C=Cc2cc(O)cc(O)c2)cc1 [resveratrol, 3,4',5-trihydroxystilbene] | –
2 | – | – | – | – | – | CC(=O)Oc1ccc(/C=C/c2cc(OC(C)=O)cc(OC(C)=O)c2)cc1 [triacetylresveratrol, triacetyl-resveratrol] | more than one and a half time
3 | – | – | – | – | – | COc1ccc(/C=C/c2cc(OC)cc(OC)c2)cc1 [trimethylether of resveratrol] | three times
